Consider ten compounds from PubChem BioAssay (NCI).

Among the test systems are HCC-2998 colon; NCI-H226 lung; MOLT-4 leukemia; EKVX NSCLC; HCT-116 colon; NCI-H23 lung; UACC-257 melanoma; HS 578T breast; CAKI-1 renal; SK-MEL-2 melanoma.
Common to all, as to experiment: NCI anticancer screen, dose series, 48 h

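How tested: cells in 96-well plates exposed to compound for 48 hours at five concentrations. The concentration for 50% growth inhibition is given as GI50. At the TGI there is no net growth.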

Consider `O=C1NC(=O)/C(=C/C=C/c2ccccc2)S1`, for which the GI50 with HCC-2998 colon was 1.95 µM; in the assay with NCI-H226 lung, 14 µM; in the assay on MOLT-4 leukemia, 2.08 µM; with EKVX NSCLC, 6.1 µM; with HCT-116 colon, 2.36 µM; in the assay with NCI-H23 lung it was 1.74 µM. Also, the GI50 was 5.43 µM with UACC-257 melanoma, 13.4 µM with HS 578T breast, 0.46 µM in the assay with CAKI-1 renal and 24.4 µM with SK-MEL-2 melanoma. The TGI in the assay on HCC-2998 colon was 11.1 µM; with NCI-H226 lung, more than 80.8 µM; in the assay with MOLT-4 leukemia it was more than 72 µM; with EKVX NSCLC it was more than 100 µM; in the assay on HCT-116 colon, 18.6 µM; in the assay with NCI-H23 lung, more than 41.4 µM. The TGI in the assay with UACC-257 melanoma is more than 100 µM; in the assay on HS 578T breast, more than 100 µM; with CAKI-1 renal, 8.86 µM; in the assay with SK-MEL-2 melanoma it was more than 79.3 µM.
As to `COc1ccc2c(c1)CCC1C2CC[C@@]2(C)C1CC[C@@]2(O)CNC(=O)/C=C/c1ccc(O)c(OC)c1` (stereo not given in full), the GI50 in the assay with HCC-2998 colon is 17.7 µM; with NCI-H226 lung it was 22.5 µM; in the assay with EKVX NSCLC, 10.7 µM; with HCT-116 colon it was 19 µM; in the assay with NCI-H23 lung it was 25.5 µM; with UACC-257 melanoma, 28 µM. Further, the figures for the GI50 in the assay with HS 578T breast, with CAKI-1 renal and in the assay on SK-MEL-2 melanoma were 75.3 µM, 21.9 µM and 38.8 µM, respectively. Besides, the TGI in the assay on HCC-2998 colon is 33.7 µM; with NCI-H226 lung, 74.6 µM; in the assay with EKVX NSCLC it was 83.7 µM; with HCT-116 colon, more than 100 µM; in the assay on NCI-H23 lung, more than 100 µM; in the assay on UACC-257 melanoma, 80 µM. Moreover, the TGI in the assay on HS 578T breast, with CAKI-1 renal and in the assay on SK-MEL-2 melanoma was more than 100 µM in each case.
As for `O=C1c2ccccc2C(=O)c2c1ccc(C(Br)Br)c2[N+](=O)[O-]`, the GI50 was 2.08 µM with HCC-2998 colon; 0.727 µM with NCI-H226 lung; 1.23 µM with MOLT-4 leukemia; 1.96 µM in the assay with EKVX NSCLC; 0.739 µM with HCT-116 colon; 1.6 µM in the assay on NCI-H23 lung. Moreover, the GI50 in the assay with UACC-257 melanoma was 1.74 µM; with HS 578T breast it was 2.28 µM; in the assay on SK-MEL-2 melanoma, 1.91 µM. Moreover, the TGI was found to be 4.6 µM in the assay with HCC-2998 colon; 2.62 µM in the assay with NCI-H226 lung; 3.43 µM in the assay on MOLT-4 leukemia; 4.58 µM in the assay with EKVX NSCLC; 2.19 µM with HCT-116 colon; 4.34 µM in the assay with NCI-H23 lung. Besides, the TGI in the assay on UACC-257 melanoma was 3.28 µM; in the assay on HS 578T breast it was 6.75 µM; in the assay on SK-MEL-2 melanoma, 4.09 µM.
Take `COC(=O)C(/C(=N/NC(=O)c1ccncc1)C(=O)Nc1ccccc1OC)c1nc2ccc(Cl)cc2[nH]c1=O` (stereo not given): the TGI in the assay on NCI-H226 lung, with MOLT-4 leukemia, in the assay with EKVX NSCLC, with HCT-116 colon, with NCI-H23 lung and with UACC-257 melanoma was more than 100 µM throughout. For the same compound, the TGI with HS 578T breast, with CAKI-1 renal and in the assay with SK-MEL-2 melanoma was more than 100 µM in each case.
On to `CCOC(=O)c1sc(-c2ccc(OS(=O)(=O)c3cccs3)c(C=O)c2)nc1C`, for which the GI50 with NCI-H226 lung is 1.88 µM; with MOLT-4 leukemia, 1.47 µM; in the assay with EKVX NSCLC, 1.88 µM; with HCT-116 colon it was 0.732 µM; in the assay on NCI-H23 lung it was 1.76 µM; in the assay on UACC-257 melanoma it was 2.51 µM. In addition, the GI50 in the assay on HS 578T breast is 2.1 µM; with CAKI-1 renal it was 1.31 µM; in the assay with SK-MEL-2 melanoma, 2.06 µM. In addition, the TGI was found to be 4.93 µM in the assay with NCI-H226 lung; 4.02 µM in the assay on MOLT-4 leukemia; 5.4 µM in the assay on EKVX NSCLC; 2.15 µM in the assay on HCT-116 colon; 4.54 µM in the assay with NCI-H23 lung; 6.35 µM with UACC-257 melanoma. Besides, the TGI is 5.3 µM with HS 578T breast, 3.94 µM in the assay with CAKI-1 renal and 4.78 µM in the assay on SK-MEL-2 melanoma.
With `CCSc1oc(-c2ccccc2)nc1[P+](c1ccccc1)(c1ccccc1)c1ccccc1`, the GI50 is 0.418 µM with HCC-2998 colon; 0.286 µM in the assay with NCI-H226 lung; 0.289 µM with EKVX NSCLC; 0.218 µM in the assay with HCT-116 colon; 0.277 µM with NCI-H23 lung; 0.309 µM in the assay with UACC-257 melanoma. In addition, the GI50 is 0.314 µM in the assay on HS 578T breast, 0.79 µM in the assay on CAKI-1 renal and 0.276 µM in the assay with SK-MEL-2 melanoma. The TGI with HCC-2998 colon is 2.16 µM; with NCI-H226 lung, 1.86 µM; in the assay with EKVX NSCLC it was 1.84 µM; in the assay on HCT-116 colon, 3.42 µM; in the assay on NCI-H23 lung, 1.1 µM; in the assay with UACC-257 melanoma, 1.28 µM. The TGI is 2.72 µM with HS 578T breast, 2.66 µM in the assay on CAKI-1 renal and 0.866 µM with SK-MEL-2 melanoma.
Take `O=NC1c2cccc3cccc(c23)C1N=O` (stereo not given): the TGI in the assay with MOLT-4 leukemia is more than 100 µM; in the assay on EKVX NSCLC it was 6.76 µM; in the assay on HCT-116 colon it was 3.81 µM; in the assay on NCI-H23 lung, 32.3 µM; in the assay with UACC-257 melanoma, 27.5 µM; in the assay on HS 578T breast it was 75.7 µM. Moreover, in the assay with CAKI-1 renal, the TGI turned out to be 10.8 µM.
For `O=c1[nH]cc(CS(=O)(=O)Cc2c[nH]c(=O)[nH]c2=O)c(=O)[nH]1`, the TGI in the assay on NCI-H226 lung, in the assay with MOLT-4 leukemia, with EKVX NSCLC, in the assay on HCT-116 colon, in the assay on NCI-H23 lung and in the assay with UACC-257 melanoma was more than 100 µM throughout. The TGI in the assay with HS 578T breast, with CAKI-1 renal and with SK-MEL-2 melanoma was more than 100 µM each time.
Take `O=C(c1ccccc1)C1C(C(=O)c2ccccc2)N1Cc1ccccc1` (stereo not given): the TGI in the assay on HCC-2998 colon, in the assay with NCI-H226 lung, with MOLT-4 leukemia, in the assay on EKVX NSCLC, in the assay on NCI-H23 lung and in the assay on UACC-257 melanoma was more than 100 µM throughout. The TGI with HS 578T breast was more than 100 µM; in the assay with CAKI-1 renal, more than 100 µM; in the assay with SK-MEL-2 melanoma it was 51.5 µM.
Turning to `CN(C(=O)C1(C(=O)C=[N+]=[N-])CC1)c1ccccc1`, the TGI in the assay with HCC-2998 colon, with NCI-H226 lung, with MOLT-4 leukemia, in the assay on EKVX NSCLC, with HCT-116 colon and with NCI-H23 lung was more than 100 µM each time. In addition, the TGI in the assay with UACC-257 melanoma, in the assay with HS 578T breast and in the assay on SK-MEL-2 melanoma was more than 100 µM throughout.
